Measurements from patent US6417375B1, “Furylphosphines and organometallic complexes containing them” (Rhodia Fiber & Resin Intermediates, priority 1998, dated 2002).

Assay: Solubility of the furylphosphine in water

Row | SMILES | solubility (23 °C) [mg/mL] | other results
1 | O=P(O)(O)c1ccc(P(c2ccccc2)c2ccc(P(=O)(O)O)o2)o1 [Example 3, tetrasodium 2,2′-phenylphosphine-diylbis(furan-5-phosphonate)] | 1140 | 
2 | O=S([O-])c1ccc(P(c2ccccc2)c2ccccc2)o1.[Na+] [Example 4, sodium 2-(diphenylphosphino)furan-5-sulphinate] |  | solubility (21 °C): 205 mg/mL
3 | O=C([O-])c1ccc(P(c2ccccc2)c2ccccc2)o1.[Na+] [Example 1, sodium 2-(diphenylphosphino)furan-5-carboxylate] | 250 | 
4 | O=P([O-])([O-])c1ccc(P(c2ccccc2)c2ccccc2)o1.[Na+].[Na+] [Example 2, disodium 2-(diphenylphosphino)furan-5-phosphonate] |  | solubility (20 °C): 680 mg/mL
